Broadly, the Km is the substrate concentration at which the rate is half of its maximum. The term stoichiometry N denotes the number of molecules, sites or subunits per partner or assembly.

The target in assay [1] is MdP2′GT (Malus domestica, UniProt A0A0X9XIE3). Kind of assay: Effects of metal ions and other compounds on purified MdP2′GT activity. It counts as biochemical, Malus x domestica. The arrangement: key to IC50: ND: no effects detected at selected concentrations; Activator: additions increased MdP2′GT activity at selected concentrations. As to conditions: for Effect of co-solvent on enzyme activity: 20% co-solvent.

Assay [2] addresses T1, MdP2′GT (Malus domestica, UniProt A0A0X9XIE3).
T1 construct: gene P2'GT
T1 sequence (A0A0X9XIE3 1-483): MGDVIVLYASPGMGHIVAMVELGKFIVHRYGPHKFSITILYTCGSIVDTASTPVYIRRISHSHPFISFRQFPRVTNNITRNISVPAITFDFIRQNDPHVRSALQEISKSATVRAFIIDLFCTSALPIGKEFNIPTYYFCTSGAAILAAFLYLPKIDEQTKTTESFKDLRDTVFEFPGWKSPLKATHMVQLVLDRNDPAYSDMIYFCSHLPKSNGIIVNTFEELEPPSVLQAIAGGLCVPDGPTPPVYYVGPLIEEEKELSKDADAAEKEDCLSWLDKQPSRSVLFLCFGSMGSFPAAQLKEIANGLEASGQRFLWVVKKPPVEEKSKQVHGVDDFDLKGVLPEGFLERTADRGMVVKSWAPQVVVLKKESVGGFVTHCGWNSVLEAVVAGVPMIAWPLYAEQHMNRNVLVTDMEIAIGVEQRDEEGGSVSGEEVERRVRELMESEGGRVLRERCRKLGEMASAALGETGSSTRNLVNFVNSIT
Kind of assay: Inhibition of phloridzin formation by purified MdP2′GT from 270 uM UDPG and 20 uM phloretin, 50 mM Tris/HCl pH 7.5, 5 mM DTT, 30 °C, 30 min, product quantified by HPLC-DAD. It is filed as biochemical.

For a further assay, the system named is T2, UGT88F1.
T2 construct: literature enzyme, MW 59 kDa
The experiment in a line: Literature Km for 2′-OH glycosylation of phloretin with the UDPG/phloretin combination, quoted in the comparison table. It is filed as biochemical. The following applies: read-out: Km (μM), reported P2′GTs; cited from earlier work. An excerpt:
(§1) Table 5 Enzyme characters and Kinetic parameters of MdP2′GT and reported P2′GTs. | Km (μM), reported P2′GTs

For the next assay, the system named is T3, UGT71A15.
T3 construct: literature enzyme, MW 52 kDa
The assay is described as above. As to conditions: read-out: Km (μM), reported P2′GTs; cited from earlier work. It counts as biochemical.
Text: as §1

The target of assay [3] is Phloretin-2′-O-glycosyltransferase of Malus x domestica (MdP2′GT) (Malus x domestica). The experiment in a line: SEC; Sephacryl S-300 column, 5 mg/ml purified MdP2′GT, buffer D (50 mM Tris-HCl pH 7.5, 200 mM NaCl, 5 mM DTT), calibrated with five marker proteins; native protein and protein deglycosylated with PNGase F or Endo H under native conditions; mass confirmed by MALDI-TOF. On the technique in general: SEC sorts molecules by how far they enter the pores of the column.

Where [4] appears, read: 0.5 h, pH 7.5, addition at 5 mM, compared to a control in which none is added, read-out: Relative activity.
Where [5] appears, read: addition at 5 mM, compared to a control in which none is added.
The mark [6] stands for this setting: addition at 0.5 mM, compared to a control in which none is added.
[7] abbreviates: concentration of inhibitor required to reduce the original MdP2′GT activity by 50%, read-out: IC50.
[8] abbreviates: concentration of inhibitor required to reduce the original MdP2′GT activity by 50%.

Consider `O[C@@H](CS)[C@@H](O)CS` (racemic) [Dithiothreitol], for which the activity at 5000 µM on MdP2′GT [1] (setting [4]) turned out to be 99.2 ± 1.43%. In addition, on MdP2′GT [1] (setting [5]), the Relative activity result is reported as “No obvious effects”.

Consider `O=c1ccn([C@@H]2O[C@H](CO[P@@](=O)(O)O[P@@](=O)(O)OP(=O)(O)O)[C@@H](O)[C@H]2O)c(=O)[nH]1` (stereo in doubt) [UTP, uridine triphosphate], for which the activity at 5000 µM on MdP2′GT [1] (setting [4]) worked out at 3.05 ± 0.26%.

For the compound `O=C(CCc1ccc(O)c(O)c1)c1c(O)cc(O)cc1O[C@@H]1O[C@H](CO)[C@@H](O)[C@H](O)[C@H]1O` [3-hydroxyphloridzin, 3-hydroxyphloridzin], at MdP2′GT [1] (setting [5]), the Relative activity is recorded as 15.65 ± 0.58%. Take `O=C(CCc1ccc(O)c(O)c1)c1c(O)cc(O)cc1O[C@@H]1O[C@H](CO)[C@@H](O)[C@H](O)[C@H]1O` [3-hydroxyphloridzin]: the IC50 on MdP2′GT [2] (read-out: IC50/) is 2500 ± 200 µM. For `NCCc1ccc(S(=O)(=O)F)cc1` [AEBSF, 4-(2-Aminoethyl) benzenesulfonyl fluoride], the Relative activity entry is recorded as “No obvious effects” on MdP2′GT [1] (setting [6]) and 99.51 ± 2.36% on MdP2′GT [1] (addition at 0.5 mM, compared to a control in which none is added, 30 min, 500 µM). Consider `[Cl][Al]([Cl])[Cl]` [AlCl3], for which the Relative activity at MdP2′GT [1] (setting [5]) is recorded as 67.81 ± 1.03%; at MdP2′GT [1] (addition at 5 mM, compared to a control in which none is added, listed as Al^3+), “partially inhibited”. The IC50 at MdP2′GT [1] (setting [7]) was 8000 ± 500 µM. As to `[Ba+2].[Cl-].[Cl-]` [BaCl2], the Relative activity result on MdP2′GT [1] (setting [6]) was “negligibly affected”; at MdP2′GT [1] (setting [5]) it was 99.03 ± 2.54%.

Turning to `[Ca+2].[Cl-].[Cl-]` [CaCl2], the Relative activity is listed as 54.21 ± 1.05% on MdP2′GT [1] (setting [5]) and “partially inhibited” at MdP2′GT [1] (addition at 5 mM, compared to a control in which none is added, listed as Ca^2+). At MdP2′GT [1] (setting [7]), the IC50 is 5500 ± 120 µM.

Take `[Cl-].[Cl-].[Co+2]` [CoCl2]: the IC50 on MdP2′GT [1] (read-out: IC50) amounted to 50 ± 10 µM. Consider `[Cl][Cu][Cl]` [CuCl2], for which the Relative activity at MdP2′GT [1] (setting [5]) is reported as 0.00 ± 0.00%; at MdP2′GT [1] (addition at 5 mM, compared to a control in which none is added, listed as Cu^2+), “completely inhibited”. For the same compound, the IC50 at MdP2′GT [1] (setting [7]) worked out at 10 ± 10 µM. As for `C[S+](C)[O-]` [Dimethyl sulfoxide], the “Effect of co-solvent on enzyme activity” value at MdP2′GT [1] is “no effects”. For the same compound, the Relative activity on MdP2′GT [1] (addition at 704 mM, compared to a control in which none is added) came to 99.54 ± 1.40%. For the compound `[Cl][Fe]([Cl])[Cl]` [FeCl3], on MdP2′GT [1] (setting [7]), the IC50 was 6500 ± 230 µM. In the case of `O=S(=O)([O-])[O-].[Fe+2]` [FeSO4], on MdP2′GT [1] (setting [5]), the Relative activity came out at 119.43 ± 3.61%. The IC50 result at MdP2′GT [1] (setting [8]) is on record as “Activator”.

For the compound `OCC(O)CO` [Glycerol], the activity at 686000 µM at MdP2′GT [1] (0.5 h, pH 7.5, addition at 686 mM (text: 5% glycerol), compared to a control in which none is added, read-out: Relative activity) is 98.1 ± 2.15%. Moreover, the Relative activity entry at MdP2′GT [1] (addition at 686 mM (text: 5% glycerol), compared to a control in which none is added) was “No obvious effects”. As to `[Cl-].[K+]` [KCl], the Relative activity result on MdP2′GT [1] (setting [6]) was “negligibly affected”; on MdP2′GT [1] (setting [5]), 99.58 ± 2.31%. Consider `CO` [Methanol], for which the “Effect of co-solvent on enzyme activity” value on MdP2′GT [1] is recorded as “no effects”. Further, the Relative activity at MdP2′GT [1] (addition at 1236 mM, compared to a control in which none is added) is reported as 99.23 ± 1.41%. Turning to `[Cl-].[Cl-].[Mg+2]` [MgCl2], the Relative activity on MdP2′GT [1] (addition at 2 mM, compared to a control in which none is added) is listed as 130.35 ± 3.53%; at MdP2′GT [1] (addition at 2 mM, compared to a control in which none is added, listed as Mg^2+), 130%. The IC50 entry against MdP2′GT [1] (setting [8]) is “Activator”. As to `O=S(=O)([O-])[O-].[Mn+2]` [MnSO4], the Relative activity on MdP2′GT [1] (setting [5]) is reported as 47.41 ± 1.13%; at MdP2′GT [1] (addition at 5 mM, compared to a control in which none is added, listed as Mn^2+) it was “partially inhibited”. The IC50 at MdP2′GT [1] (setting [7]) was 4500 ± 110 µM. With `CCN1C(=O)C=CC1=O` [N-Ethylmaleimide], at MdP2′GT [1] (0.5 h, pH 7.5, addition at 1 mM, compared to a control in which none is added, read-out: Relative activity), the activity at 1000 µM was 20.5 ± 1.08%. In addition, the Relative activity entry at MdP2′GT [1] (addition at 1 mM, compared to a control in which none is added) is reported as “strong inhibition”. Also, on MdP2′GT [1] (setting [7]), the IC50 turned out to be 280 ± 10 µM. As to `[Cl-].[Na+]` [NaCl, Sodium chloride], the Relative activity at MdP2′GT [1] (addition at 500 mM, compared to a control in which none is added) is given as 100 ± 1.00%; on MdP2′GT [1] (addition at 500 mM, compared to a control in which none is added, listed as Sodium chloride), “no obvious inhibitory effects”. On to `[Cl][Ni][Cl]` [NiCl2], for which the Relative activity result is listed as “negligibly affected” at MdP2′GT [1] (setting [6]) and 98.26 ± 2.08% at MdP2′GT [1] (setting [5]). Consider `O=C(CCc1ccc(O)cc1)c1c(O)cc(O)cc1O` [Phloretin, phloretin], for which the Km was 0.62 µM in the assay on UGT88F1 and 82 µM in the assay with UGT71A15.

As to `O=C(CCc1ccc(O)cc1)c1c(O)cc(O[C@@H]2O[C@H](CO)[C@@H](O)[C@H](O)[C@H]2O)cc1O` [Trilobatin, trilobatin], at MdP2′GT [2] (read-out: IC50/), the IC50 is 3000 ± 210 µM.

With `O=C(CCc1ccc(O)cc1)c1c(O)cc(O[C@@H]2O[C@H](CO)[C@@H](O)[C@H](O)[C@H]2O)cc1O` [Trilobatin], the Relative activity at MdP2′GT [1] (setting [5]) came out at 21.70 ± 1.15%. `O=c1ccn([C@@H]2O[C@H](COP(=O)(O)OP(=O)(O)O)[C@@H](O)[C@H]2O)c(=O)[nH]1` [UDP, uridine diphosphate]: the IC50 on MdP2′GT [2] (read-out: IC50/) is 100 ± 10 µM.

`O=c1ccn([C@@H]2O[C@H](COP(=O)(O)O)[C@@H](O)[C@H]2O)c(=O)[nH]1` [UMP, uridine monophosphate]: the Relative activity on MdP2′GT [1] (setting [5]) turned out to be 38.25 ± 1.07%. The IC50 on MdP2′GT [2] (read-out: IC50/) turned out to be 4000 ± 130 µM. For the compound `O=c1ccn([C@@H]2O[C@H](COP(=O)(O)OP(=O)(O)OP(=O)(O)O)[C@@H](O)[C@H]2O)c(=O)[nH]1` [UTP, uridine triphosphate], the IC50 on MdP2′GT [1] (setting [7]) amounted to 2500 ± 100 µM.

As to `O=c1ccn([C@@H]2O[C@H](CO)[C@@H](O)[C@H]2O)c(=O)[nH]1` [Uridine], on MdP2′GT [1] (setting [4]), the activity at 5000 µM is 98.2 ± 2.12%. `O=C(O)c1cc[c]([Hg+])cc1` [p-hydroxymercuribenzoate, p-hydroxymercuribenzoate (PHMB)] gave an IC50 against MdP2′GT [2] of 240 ± 70 µM.

As to `OCCS` [β-mercaptoethanol], the Relative activity was 99.02 ± 1.47% on MdP2′GT [1] (setting [5]) and “No obvious effects” on MdP2′GT [1] (addition at 5 mM, compared to a control in which none is added, listed as β-ME). For the compound “Phloretin-2′-O-glycosyltransferase of Malus x domestica (MdP2′GT) (enzyme)”, the stoichiometry N in assay [3] was 2.

On to p-hydroxymercuribenzoate, for which the IC50 at MdP2′GT [1] (setting [7]) came to 240 ± 70 µM.

The values are drawn from paper PMC5059724, “Purification and characterization of a novel phloretin-2′-O-glycosyltransferase favoring phloridzin biosynthesis” (Scientific Reports, 2016).
